Reference: patent US8906953B2, “Pyrrolidine substitute flavones for the treatment of inflammatory disorders” (Piramal Enterprises Limited, priority 2010, dated 2014)
Where a name gives a salt, the structure may show the parent alone.

The molecules below were run on TNF-α (assay: LPS-induced TNF-α release from hPBMCs (ELISA)). Conditions: Homo sapiens; LPS-stimulated hPBMCs, 5 hours; read-out: Activity (TNF-α) IC50.
Type: cell-based
Experimental: Cytokine production by lipopolysaccharides (LPS) in hPBMCs (human peripheral blood mononuclear cells) was measured as in reference, Physiol. Res. 2003, 52, 593-598, the disclosure of which is incorporated by reference for the teaching of the assay. Blood was collected from healthy donors into Potassium EDTA vacutainer tubes (BID vacutainer). The PBMC were isolated using gradient centrifugation in Histopaque-1077 solution (Sigma). Isolated PBMC were suspended in RPMI 1640 (Rosewell Park Memorial Institute) culture medium (Sigma-Aldrich Fine Chemicals, USA) containing 10% fetal bovine serum (FBS) (JRH, USA), 100 U/mL penicillin (Sigma Chemical Co. St Louis, Mo., USA) and 100 μg/mL streptomycin (Sigma Chemical Co. St Louis, Mo.). The cell concentration was adjusted to 1×10^6 cells/mL. The viability as determined by trypan blue dye exclusion was uniform Ly≧98%. The cell suspension (100 μL) was added to the wells of a 96-well culture plate. Following cell plating, 79 μL of the culture medium and 1 μL of various concentrations of test compounds (compounds of formula 1) (final concentration 0.001, 0.003, 0.005, 0.01, 0.025, 0.03, 0.05, 0.1, 0.25, 0.3 and 1 μM) dissolved in DMSO (dimethyl sulfoxide, Sigma, Mo., USA) were added to the cells. The final concentration of DMSO was adjusted to 0.5%. The vehicle (0.5% DMSO) was used as control. […] The plates were incubated for 30 minutes at 37° C. in an atmosphere of 5% CO2. Finally, 20 μL (10 μg/mL) per well of LPS, (Escherchia coli 0127:B8, Sigma Chemical Co., St. Louis, Mo.) was added to the wells of the incubated plates, for a final concentration of 1 μg/mL. The plates were incubated at 37° C. for 5 hours in an atmosphere of 5% CO2. […] Supernatants were harvested and assayed for TNF-α, IL-1β, IL-6 and IL-8 by ELISA as described by the manufacturer. (OptiEIA ELISA sets, BD Biosciences, Pharmingen). The 50% inhibitory concentration (IC50) values were calculated by a nonlinear regression method using GraphPad software (Prism 3.03).

IC50 [µM]	Molecule
0.4	CN1CC[C@@H](c2c(O)cc(O)c3c(=O)cc(-c4ccc([N+](=O)[O-])cc4Cl)oc23)[C@@H]1CO [Compound of example 5, (+)-trans-2-(2-Chloro-4-nitro-phenyl)-5,7-dihydroxy-8-(2-hydroxymethyl-1-methyl-pyrrolidin-3-yl)-chromen-4-one hydrochloride]
0.2	CN1CC[C@@H](c2c(O)cc(O)c3c(=O)cc(-c4ccccc4Cl)oc23)[C@@H]1CO [Compound of example 7, (+)-trans-2-(2-Chloro-phenyl)-5,7-dihydroxy-8-(2-hydroxymethyl-1-methyl-pyrrolidin-3-yl)-chromen-4-one hydrochloride]
0.9	CN1CC[C@@H](c2c(O)cc(O)c3c(=O)cc(-c4cc(F)ccc4Br)oc23)[C@@H]1CO [Compound of example 9, (+)-trans-2-(2-Bromo-5-fluoro-phenyl)-5,7-dihydroxy-8-(2-hydroxymethyl-1-methyl-pyrrolidin-3-yl)-chromen-4-one hydrochloride]
1.5	CN1CC[C@@H](c2c(O)cc(O)c3c(=O)cc(-c4ccc(C#N)cc4Cl)oc23)[C@@H]1CO [Compound of example 12, (+)-trans-2-(2-Chloro-4-cyano-phenyl)-5,7-dihydroxy-8-(2-hydroxymethyl-1-methyl-pyrrolidin-3-yl)-chromen-4-one hydrochloride]
0.3	CN1CC[C@@H](c2c(O)cc(O)c3c(=O)cc(-c4ccc([N+](=O)[O-])cc4Br)oc23)[C@@H]1CO [Compound of example 16, (+)-trans-2-(2-Bromo-4-nitro-phenyl)-5,7-dihydroxy-8-(2-hydroxymethyl-1-methyl-pyrrolidin-3-yl)-chromen-4-one hydrochloride]
0.3	CN1CC[C@@H](c2c(O)cc(O)c3c(=O)cc(-c4ccc(Cl)cc4Cl)oc23)[C@@H]1CO [Compound of example 18, (+)-trans-2-(2,4-Dichloro-phenyl)-5,7-dihydroxy-8-(2-hydroxymethyl-1-methyl-pyrrolidin-3-yl)-chromen-4-one hydrochloride]
0.7	CN1CC[C@@H](c2c(O)cc(O)c3c(=O)cc(-c4cc(F)ccc4Cl)oc23)[C@@H]1CO [Compound of example 20, (+)-trans-2-(2-Chloro-5-fluoro-phenyl)-5,7-dihydroxy-8-(2-hydroxymethyl-1-methyl-pyrrolidin-3-yl)-chromen-4-one hydrochloride]
2.3	CN1CC[C@@H](c2c(O)cc(O)c3c(=O)cc(-c4cccs4)oc23)[C@@H]1CO [Compound of example 22, (+)-trans-5,7-Dihydroxy-8-(2-hydroxymethyl-1-methyl-pyrrolidin-3-yl)-2-thiophen-2-yl-chromen-4-one hydrochloride]
0.4	CN1CC[C@@H](c2c(O)cc(O)c3c(=O)cc(-c4cccc([N+](=O)[O-])c4)oc23)[C@@H]1CO [Compound of example 26, (+)-trans-5,7-dihydroxy-8-(2-hydroxymethyl-1-methyl-pyrrolidin-3-yl)-2-(3-nitrophenyl)-chromen-4-one hydrochloride]
4.1	CN1CC[C@@H](c2c(O)cc(O)c3c(=O)cc(-c4cccc(Br)c4Cl)oc23)[C@@H]1CO [Compound of example 30, (+)-trans-2-(3-Bromo-2-chloro-phenyl)-5,7-dihydroxy-8-(2-hydroxymethyl-1-methyl-pyrrolidin-3-yl)-chromen-4-one hydrochloride]
2.5	CN1CC[C@@H](c2c(O)cc(O)c3c(=O)cc(-c4cccc(Cl)c4)oc23)[C@@H]1CO [Compound of example 34, (+)-trans-2-(3-Chloro-phenyl)-5,7-dihydroxy-8-(2-hydroxymethyl-1-methyl-pyrrolidin-3-yl)-chromen-4-one hydrochloride]
1.3	CN1CC[C@@H](c2c(O)cc(O)c3c(=O)cc(-c4cccc([N+](=O)[O-])c4Cl)oc23)[C@@H]1CO [Compound of example 38, (+)-trans-2-(2-Chloro-3-nitro-phenyl)-5,7-dihydroxy-8-(2-hydroxymethyl-1-methyl-pyrrolidin-3-yl)-chromen-4-one hydrochloride]
2.4	CN1CC[C@@H](c2c(O)cc(O)c3c(=O)cc(-c4cccc(C(F)(F)F)c4Cl)oc23)[C@@H]1CO [Compound of example 42, (+)-trans-2-(2-Chloro-3-trifluoromethyl-phenyl)-5,7-dihydroxy-8-(2-hydroxymethyl-1-methyl-pyrrolidin-3-yl)-chromen-4-one hydrochloride]
0.5	Cc1cccc(-c2cc(=O)c3c(O)cc(O)c([C@@H]4CCN(C)[C@H]4CO)c3o2)c1Cl [Compound of example 46, (+)-trans-2-(2-Chloro-3-methyl-phenyl)-5,7-dihydroxy-8-(2-hydroxymethyl-1-methyl-pyrrolidin-3-yl)-chromen-4-one hydrochloride]
1.5	CN1CC[C@@H](c2c(O)cc(O)c3c(=O)cc(-c4cccc(Cl)c4Cl)oc23)[C@@H]1CO [Compound of example 58, (+)-trans-2-(2,3-Dichloro-phenyl)-5,7-dihydroxy-8-(2-hydroxymethyl-1-methyl-pyrrolidin-3-yl)-chromen-4-one hydrochloride]
1.3	CN1CC[C@@H](c2c(O)cc(O)c3c(=O)cc(-c4cccc(I)c4Cl)oc23)[C@@H]1CO [Compound of example 62, (+)-trans-2-(2-Chloro-3-iodo-phenyl)-5,7-dihydroxy-8-(2-hydroxymethyl-1-methyl-pyrrolidin-3-yl)-chromen-4-one hydrochloride]
0.9	CC(C)Nc1cccc(-c2cc(=O)c3c(O)cc(O)c([C@@H]4CCN(C)[C@H]4CO)c3o2)c1Cl [Compound of example 66, (+)-trans-2-(2-Chloro-3-isopropylamino-phenyl)-5,7-dihydroxy-8-(2-hydroxymethyl-1-methyl-pyrrolidin-3-yl)-chromen-4-one hydrochloride]

Each molecule was assayed on PDE4 (assay: PDE4 inhibition, cAMP fluorescence assay in salbutamol-stimulated U937 cells). Conditions: U937 cells, concentration 0.3 μM, salbutamol 1 μM.
Type: cell-based, human
Experimental: Culture medium was changed every 2-3 days and always 24 hours before harvest. RPMI medium, FBS and Salbutamol were purchased from Sigma-Aldrich (USA). Rolipram was synthesized in the Medicinal Chemistry Department, Piramal Life Sciences Limited.
Rolipram was used as a standard (0.3, 1 and 3 μM). […] Fluorescence measurements were taken with Polarstar Optima (BMG Labtech-Germany).
Relative fluorescence was calculated using the following formula where: RF=Relative Fluorescence, Fo=fluorescent intensity of the blank or buffer control, F=fluorescence of cAMP or sample: RF=(Fo−F)/Fo
A standard curve was plotted using the RF values of the given standards and the values of cAMP corresponding to the test compounds were determined using the standard plot.

Molecule	Relative Fluorescence (RF)
COc1ccc(C2CNC(=O)C2)cc1OC1CCCC1 (stereo not drawn) [Rolipram, reference compound]	1.39

Same assay, conditions: U937 cells, concentration 1 μM, salbutamol 1 μM

Molecule	Relative Fluorescence (RF)
COc1ccc(C2CNC(=O)C2)cc1OC1CCCC1 (stereo not drawn) [Rolipram, reference compound]	1.56

Same assay, conditions: U937 cells, concentration 3 μM, salbutamol 1 μM

Molecule	Relative Fluorescence (RF)
COc1ccc(C2CNC(=O)C2)cc1OC1CCCC1 (stereo not drawn) [Rolipram, reference compound]	1.73

The molecules below were run on arthritic (CIA) DBA/1J mice (assay: Collagen induced arthritis in mouse). Conditions: Enbrel 3 mg/kg s.c. once daily, 23 days.
Type: in vivo
Experimental: The assay was designed as in reference, J. Exp. Med., 1985, 162, 637-646, the disclosure of which is incorporated herein by reference for the teaching of the assay.
Male DBA/1J mice (originally procured from Jackson Laboratories, USA), aged 8-10 weeks were immunized with an emulsion equivalent to 200 μg of type II collagen in Freund's Complete Adjuvant, injected intradermally at the base of the tail. A booster shot with the same emulsion was given 21 days later. A group of naïve mice was maintained alongside.
From day 23 to day 56, mice were examined daily once for the signs of rheumatoid arthritis, using the Articular Index and paw thickness as parameters. Articular Index scoring was performed employing the following criteria:
Mice with a minimum hind paw score of 2 were inducted into the study.
Mice were randomized into the various study groups and orally administered the vehicle (0.5% CMC, 1 ml/kg), test compound (compound of example 3, 50 mg/kg twice daily) and standard compound (Enbrel, 3 mg/kg, s.c., once daily). […] The dosing of the compounds was done for 23 days.
The following parameters were observed and recorded daily, • 1. Body weight • 2. Articular index • 3. Paw thickness in mm using a tension free caliper • 4. Any significant observation regarding the condition of the animal. […]
The results are graphically depicted in FIG. 3 (Articular index versus days of treatment) and FIG. 4 (Paw thickness versus days of treatment). Data obtained during the course of this study (articular index and paw thickness) was statistically evaluated by applying Mann-Whitney U test.
Mice were humanely euthanized and the hind paws were harvested from each animal, fixed in 10% neutral buffered formalin, decalcified in 5% formic acid and embedded in paraffin. Section […] were stained with either hematoxylin and eosin or safranin 0 and evaluated microscopically. Histopathological changes were scored as follows: mild (score=1), moderate (score=2) or severe (score=3) for the parameters of cellular infiltration, bone erosions and cartilage damage, graded separately. […]

Molecule	Severity of disease by articular index and paw thickness
Enbrel	significant reduction in the severity of the disease
